Each structure is given as a SMILES string. Where two headings read alike, the source gives them in different places.

13 compounds from patent EP4745138A1, “THIO-GLUTARIMIDO ISOINDOLINONE DERIVATIVE, BIFUNCTIONAL PROTEIN DEGRADER CONTAINING SAME, AND USES THEREOF” (Gluetacs Therapeutics (Shanghai) Co., Ltd., priority 2023, dated 2025) can be followed below.

Test [1] has as its system MV-4-11. Nature of the test: Tumor cell proliferation inhibition (CellTiter-Meiluncell Luminescent Cell Viability Assay). In kind it is cell-based. As to conditions: Homo sapiens, 96 hours; for inhibition at 0.01 µM: MV4-11, 10 nM, read-out: Inhibition Rate at 10 nM (%); for inhibition at 0.5 µM: MV4-11, 500 nM, read-out: Inhibition Rate at 500 nM (%). As for the experimental part:
(§1) The tumor cells used herein were cultured in a cell culture medium listed in table 3 at 37°C in an incubator with 5% CO2. Prior to experimentation, all cell lines used were correctly identified by STR profiling, and tested negative for mycoplasma contamination using a mycoplasma detection kit through routine screenings. Table 3. Tumor cells and cell culture medium used in the present disclosure
(§2) The IC50 values of the compounds of the present disclosure (including the compounds in Table 1, Table 2, and Examples) were determined using the CellTiter-Meiluncell Luminescent Cell Viability Assay Kit from Dalian Meilun Biotech Co., Ltd. The detailed procedure is as follows: Tumor cells were seeded in 96-well cell culture plates at the densities specified in Table 4. On the following day, the test compounds of the present disclosure were subjected to serial dilution. […] Subsequently, 0.5 µL of the test compound dilution was transferred into the 96-well plate containing the cells, with each well containing 100 µL of cell culture medium. […] Into the 96-well plate, the diluted test compounds and corresponding detection reagents were added, resulting in final test compound concentrations of 500 nM and 10 nM, respectively. The experimental procedure is described below using the diluted 2 µM test compound as an example.
(§3) 0.5 µL of the aforementioned diluted compound of the present disclosure (including the compounds in Table 1, Table 2, and Examples) was added to the seeded cells in 100 µL of medium, yielding a final test compound concentration of 10 nM. After the cells were treated with the compounds of the present disclosure for a specified period, the cell viability assay reagent was added to the culture medium according to the kit's instructions to determine cell viability. […] All controls were treated using the same procedure as the compounds of the present disclosure. […] Seeding protocol and treatment time for tumor cells

For test [2], the target named is T1, human Cereblon WT GST-tagged protein (Homo sapiens, UniProt Q96SW2).
T1 construct: purchased CISBIO 64BDCRBNPEH
T1 sequence (Q96SW2 whole entry): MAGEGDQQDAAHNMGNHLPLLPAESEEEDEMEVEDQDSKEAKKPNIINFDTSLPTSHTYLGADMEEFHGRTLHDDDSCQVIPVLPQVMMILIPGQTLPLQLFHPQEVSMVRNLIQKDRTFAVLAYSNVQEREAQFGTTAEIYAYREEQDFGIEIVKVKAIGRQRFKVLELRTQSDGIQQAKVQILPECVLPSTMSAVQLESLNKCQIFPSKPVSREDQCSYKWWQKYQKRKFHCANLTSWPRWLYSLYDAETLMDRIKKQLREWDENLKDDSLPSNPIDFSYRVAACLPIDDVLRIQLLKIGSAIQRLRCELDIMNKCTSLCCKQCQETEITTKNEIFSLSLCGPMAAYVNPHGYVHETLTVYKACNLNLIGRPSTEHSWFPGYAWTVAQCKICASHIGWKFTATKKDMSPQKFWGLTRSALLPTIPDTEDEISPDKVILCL
Nature of the test: CRBN-binding affinity, HTRF (CEREBLON BINDING kit). As to conditions: for inhibition at 0.5 µM: read-out: Inhibition Rate at 0.5 µM (%); for inhibition at 2 µM: read-out: Inhibition Rate at 2 µM (%). The method, boiled down: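 HTRF competition against a thalidomide-red probe using GST-tagged Cereblon and Eu-labelled anti-GST antibody. Test concentrations (final): 2 µM and 0.5 µM in diluent #9 (1X); blank controls lack compound and protein, containing PROTAC binding buffer.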

The test system of test [3] is MM.1S. Nature of the test: Tumor cell proliferation inhibition (CellTiter-Meiluncell Luminescent Cell Viability Assay). The test is classed as cell-based. The note with it: for inhibition at 0.5 µM: read-out: Inhibition Rate at 500 nM (%). As for the experimental part: as §1, §2, §3
Where [4] appears, read: Table I-8, SMARCA2/4 inhibitors.

With `O=C1CCC(N2Cc3c(CN4CCC(n5cc(NC(=O)c6cnn7ccc(N8C[C@H]9C[C@@H]8CO9)nc67)c(C(F)F)n5)CC4)cccc3C2=S)C(=O)N1` (stereo partly drawn) [GT-05288, 5-((1R,4R)-2-oxa-5-azabicyclo[2.2.1]heptan-5-yl)-N-(3-(difluoromethyl)-1-(1-((2-(2,6-dioxopiperidin-3-yl)-1-thioxoisoindolin-4-yl)methyl)piperidin-4-yl)-1H-pyrazol-4-yl)pyrazolo[1,5-a]pyrimidine-3-carboxamide], in test [1] (Table I-6, IRAK4 inhibitors), the inhibition at 0.01 µM was in the range of 0 to 5% and the inhibition at 0.5 µM fell in the range of 40 to 50%. Also, in test [2], the inhibition at 0.5 µM was 53 to 60% and the inhibition at 2 µM lay in the range of 80 to 100%.
Turning to `Cc1cc(-c2nc(C(=O)Nc3cc4oc(N5CCN(Cc6cccc7c6CN(C6CCC(=O)NC6=O)C7=S)CC5)nc4nc3N3CC[C@@H](O)C3)co2)ccn1` (stereo partly drawn) [GT-05289, N-(2-(4-((2-(2,6-dioxopiperidin-3-yl)-1-thioxoisoindolin-4-yl)methyl)piperazin-1-yl)-5-((R)-3-hydroxypyrrolidin-1-yl)oxazolo[4,5-b]pyridin-6-yl)-2-(2-methylpyridin-4-yl)oxazole-4-carboxamide], in test [1] (Table I-6, IRAK4 inhibitors), the inhibition at 0.01 µM lay in the range of 5 to 10% and the inhibition at 0.5 µM was in the range of 70 to 80%. Also, in test [2], the inhibition at 0.5 µM is 40 to 53% and the inhibition at 2 µM is 60 to 80%.
The matching figures for `COc1cc2nn(C3CCN(Cc4ccc5c(c4)CN(C4CCC(=O)NC4=O)C5=S)CC3)cc2cc1NC(=O)c1cccc(C(F)(F)F)n1` (centres unmarked) [GT-05296, N-(2-(1-((2-(2,6-dioxopiperidin-3-yl)-1-thioxoisoindolin-5-yl)methyl)piperidin-4-yl)-6-methoxy-2H-indazol-5-yl)-6-(trifluoromethyl)picolinamide]: 10 to 20%, 50 to 60%, 60 to 80% and 80 to 100%.
For `Cc1cc(-c2nc(C(=O)Nc3cc4oc(N5CCN(Cc6ccc7c(c6)CN(C6CCC(=O)NC6=O)C7=S)CC5)nc4nc3N3CC[C@@H](O)C3)co2)ccn1` (stereo partly drawn) [GT-05322, N-(2-(4-((2-(2,6-dioxopiperidin-3-yl)-1-thioxoisoindolin-5-yl)methyl)piperazin-1-yl)-5-((R)-3-hydroxypyrrolidin-1-yl)oxazolo[4,5-b]pyridin-6-yl)-2-(2-methylpyridin-4-yl)oxazole-4-carboxamide], in that order: 10 to 20%, 80 to 100%, 60 to 80% and 80 to 100%.
Consider `Cn1ncc(-c2nc(NC3CCN(Cc4ccc5c(c4)C(=S)N(C4CCC(=O)NC4=O)C5)CC3)ncc2Cl)c1CC1CC1` (centres unmarked) [GT-08751, 3-(6-((4-((5-chloro-4-(5-(cyclopropylmethyl)-1-methyl-1H-pyrazol-4-yl)pyrimidin-2-yl)amino)piperidin-1-yl)methyl)-1-thioxoisoindolin-2-yl)piperidine-2,6-dione], for which, in test [1] (Table I-7, CDK9 inhibitors), the inhibition at 0.01 µM was in the range of 10 to 20% and the inhibition at 0.5 µM fell in the range of 60 to 70%. Further, in test [2], the inhibition at 0.5 µM was in the range of 40 to 53% and the inhibition at 2 µM fell in the range of 80 to 100%.
On to `COc1cc(N2CCC(N(C)Cc3ccc4c(c3)CN(C3CCC(=O)NC3=O)C4=S)CC2)c(C)cc1Nc1ncc(Br)c(Nc2ccc3nccnc3c2P(C)(C)=O)n1` (centres unmarked) [GT-08754, 3-(5-(((1-(4-((5-bromo-4-((5-(dimethylphosphoryl)quinoxalin-6-yl)amino)pyrimidin-2-yl)amino)-5-methoxy-2-methylphenyl)piperidin-4-yl)(methyl)amino)methyl)-1-thioxoisoindolin-2-yl)piperidine-2,6-dione], for which, in test [1] (Table I-3, EGFR inhibitors), the inhibition at 0.01 µM is 10 to 20% and the inhibition at 0.5 µM was 70 to 80%. For the same compound, in test [2], the inhibition at 0.5 µM is 80 to 100% and the inhibition at 2 µM is 80 to 100%.
As to `COc1cc(N2CCC(N3CCN(Cc4ccc5c(c4)CN(C4CCC(=O)NC4=O)C5=S)CC3)CC2)c(C)cc1Nc1ncc(Br)c(Nc2ccc3nccnc3c2P(C)(C)=O)n1` (centres unmarked) [GT-08755, 3-(5-((4-(1-(4-((5-bromo-4-((5-(dimethylphosphoryl)quinoxalin-6-yl)amino)pyrimidin-2-yl)amino)-5-methoxy-2-methylphenyl)piperidin-4-yl)piperazin-1-yl)methyl)-1-thioxoisoindolin-2-yl)piperidine-2,6-dione], in test [1] (Table I-3, EGFR inhibitors), the inhibition at 0.01 µM lay within 20 to 30% and the inhibition at 0.5 µM was in the range of 70 to 80%. Besides, in test [2], the inhibition at 0.5 µM lay within 80 to 100% and the inhibition at 2 µM fell in the range of 80 to 100%.
On to `COC1CCN(c2nccc(Nc3cc4c(cn3)c(N3CCN(Cc5ccc6c(c5)CN(C5CCC(=O)NC5=O)C6=S)CC3)nn4C(C)C)n2)CC1` (centres unmarked) [GT-08756, 3-(5-((4-(1-isopropyl-6-((2-(4-methoxypiperidin-1-yl)pyrimidin-4-yl)amino)-1H-pyrazolo[4,3-c]pyridin-3-yl)piperazin-1-yl)methyl)-1-thioxoisoindolin-2-yl)piperidine-2,6-dione], for which, in test [1] (Table I-3, EGFR inhibitors), the inhibition at 0.01 µM lay in the range of 5 to 10% and the inhibition at 0.5 µM was 40 to 50%. In test [2], the inhibition at 0.5 µM was 30 to 40% and the inhibition at 2 µM fell in the range of 80 to 100%.
For `COc1cc(N2CCC(N(C)Cc3cccc4c3CN(C3CCC(=O)NC3=O)C4=S)CC2)c(C)cc1Nc1ncc(Br)c(Nc2ccc3nccnc3c2P(C)(C)=O)n1` (centres unmarked) [GT-08758, 3-(4-(((1-(4-((5-bromo-4-((5-(dimethylphosphoryl)quinoxalin-6-yl)amino)pyrimidin-2-yl)amino)-5-methoxy-2-methylphenyl)piperidin-4-yl)(methyl)amino)methyl)-1-thioxoisoindolin-2-yl)piperidine-2,6-dione], in that order: 10 to 20%, 60 to 70%, 53 to 60% and 60 to 80%.
Regarding `Nc1nnc(-c2ccccc2O)cc1N1CCN(Cc2cccc3c2CN(C2CCC(=O)NC2=O)C3=S)CC1` (centres unmarked) [GT-08786, 3-(4-((4-(3-amino-6-(2-hydroxyphenyl)pyridazin-4-yl)piperazin-1-yl)methyl)-1-thioxoisoindolin-2-yl)piperidine-2,6-dione], in test [1] (setting [4]), the inhibition at 0.01 µM was in the range of 10 to 15% and the inhibition at 0.5 µM lay in the range of 40 to 50%. Further, in test [2], the inhibition at 0.5 µM was 53 to 60% and the inhibition at 2 µM was 80 to 100%.
As to `Cc1ccsc1C(=O)n1nc(Nc2ccc(S(=O)(=O)N3CCN(Cc4cccc5c4CN(C4CCC(=O)NC4=O)C5=S)CC3)cc2)nc1N` (centres unmarked) [GT-08797, 3-(4-((4-((4-((5-amino-1-(3-methylthiophene-2-carbonyl)-1H-1,2,4-triazol-3-yl)amino)phenyl)sulfony 1)piperazin-1-yl)methyl)-1-thioxoisoindolin-2-yl)piperidine-2,6-dione], in test [1] (Table I-13, CDK2 inhibitors), the inhibition at 0.01 µM is 5 to 10% and the inhibition at 0.5 µM lay in the range of 60 to 70%. Besides, in test [2], the inhibition at 0.5 µM was 40 to 53% and the inhibition at 2 µM was in the range of 53 to 60%.
For the compound `Nc1cccc2c1CN(C1CCC(=O)NC1=O)C2=O` (centres unmarked) [Lenalidomide, lenalidomide, reference compound], in test [3] (Homo sapiens, MM1.S, 96 h), the inhibition at 0.5 µM is 30 to 35%. Moreover, in test [3] (MM.1S, 10 nM, 96 hours, Table I-16, compounds of Formula (II)), the “Inhibition Rate at 10 nM (%)” value was “ln2”.
Take `CN(C)C(=O)c1cc2cnc(Nc3ccc(N4CCNCC4)cn3)nc2n1C1CCCC1` [Ribociclib, reference compound]: the inhibition at 0.01 µM in test [3] (Homo sapiens, MM1.S, MM.1S, 10 nM, 96 hours, Table I-9, CDK4/6 inhibitors, read-out: Inhibition Rate at 10 nM (%)) fell in the range of 10 to 20%; in test [1] (Table I-9, CDK4/6 inhibitors), 5 to 10%. The inhibition at 0.5 µM in test [3] (Homo sapiens, MM1.S, MM.1S, 500 nM, 96 hours, Table I-9, CDK4/6 inhibitors) lay in the range of 10 to 20%; in test [1] (Table I-9, CDK4/6 inhibitors), 20 to 30%.

As usually defined, the inhibition is the percentage by which the read-out fell short of the control.
